Laboratory results as given in US20120065179A1, “PRODRUG COMPRISING BETA-KETO CARBOXYLIC ACID, BETA-KETO CARBOXYLIC ACID SALT OR BETA-KETO CARBOXYLIC ACID ESTER FOR DRUG DELIVERY” (YKI, Ytemiska Institutet AB, priority 2009, published 2012).
In brackets after ≈: the same amount, converted by molar mass. Several values for one entry are separate records, joined by “and”; a condition that tells them apart may be missing. Identical values can stand only once. Like-named read-outs stand apart in the source and are kept apart here. Marks after values point to notes of the source that are not given here.

How the values were obtained:
[1] = Aqueous solubility of sodium beta-keto salt prodrug of Nabumetone (Example 13b); assay type: physicochemical
Protocol: 12.1 mg of the of ethyl-5-(6-methoxy-2-naphthyl)-beta-keto-pentanoate product prepared and purified as in Example 8 was mixed with 25 mL of a 0.5 M aqueous solution NaOH and homogenised on a vortex mixer. […] 15 minutes after preparation of the sample, the sample was transferred to an oil bath set at 37° C. with continuous gentle magnetic stirring, and kept there for 3.5 hours. Crystalline flakes remained in the sample at the end of the 3.5 hours heat-treatment, and the sample was thereafter centrifuged and the clear liquid above the sedimented crystals was analysed by HPLC as described above.
After storage around one hour at room temperature a fraction of the sample was then filtered twice through a 0.2 μm filter (Whatman, 0.2 μm PS) fitted to a syringe to give a clear solution. 200 μL of this filtered solution was transferred, in a tightly closed vessel, to an oil bath at 95° C. and kept at this temperature for about 5 hours to bring about quantitative decarboxylation of the labile, dissolved beta-keto carboxylic salt prodrug derivative of Nabumetone.
The heated sample was then mixed with 35 mL of mobile phase (see Example 1) whereby a few solid crystals (comprising Nabumetone) was seen to not dissolve. In order to assure a correct sampling for HPLC analysis, 5 mL of the 35 mL sample was filtered through a 0.2 μm filter, after the whole 35 mL sample had been pH adjusted to 4.21 by 300 μL 0.1 M HCl+100 μL 1 M HCl, to assure that the pH of the sample was close to the pH of the mobile phase itself (pH 4.30). The filtered solution was thereafter analysed by HPLC and found to contain 0.777 mg Nabumetone per liter. If recalculated to the corresponding concentration of nabumetone equivalents in the form of the beta-keto salt prodrug present in dissolved form in the filtered 200 μl sample that was subsequently heat-treated to form Nabumetone above, the obtained concentration corresponds to a Nabumetone concentration of 136.7 mg Nabumetone per liter in the clear aqueous solution, at room temperature, before the heat-treatment at 95° C.

[2] = water at 25° C.; Sepassi et al, 2007; cited from earlier work
[3] = Sustained release of Nabumetone from beta-keto sodium salt prodrug in phosphate buffer at blood pH and 37° C.; assay type: physicochemical; settings: released from beta-keto salt prodrug, phosphate buffer pH about 7.4, 37° C.
Protocol: 20.91 mg of the product synthesised as described in Example 8 (however in this case not purified by the chromatographic step in Example 8) was mixed with 1 ml 0.5 M NaOH at room temperature, whereby a portion of the sample was dissolved. After 30 minutes the mixture was placed in an oven at 37° C., and 10 μl samples was taken at regular intervals, diluted with 1 ml mobile phase (as in Example 1), and analyzed by HPLC, using UV-detection at 240 nm. 3.0 hours after initiation of the saponification reaction, the precursor (retention time 4.6 min) could no longer be detected, and the precursor peak was replaced by a peak from the intermediary beta-keto salt prodrug (retention time 2.3 minutes). At this point in time, a solution of 9 ml H2O and 0.0762 g NaH2PO4 was added to the sample, in order to create a NaH2PO4/Na2HPO4 pH buffer by neutralization of the NaOH remaining in the sample. […] The sample was again placed in the oven at 37° C. and the decarboxylation of the beta-keto salt in solution, gradually giving the commercially available drug Nabumetone, was followed by HPLC by taking 100 μl samples at regular intervals and diluting them with 1 ml mobile phase (see Example 1 above) before injection on the HPLC. It can be seen from the data that Nabumetone was continuously released into the solution via the spontaneous, non-enzymatic decarboxylation of the dissolved prodrug sodium salt, over a period of more than 120 hours. The half-life of the prodrug was estimated to be about 70 hours in this medium and under the conditions used.

[4] = Storage stability of beta-keto calcium salt prodrug of Nabumetone (17 days at 60° C., HPLC); assay type: physicochemical
[5] = In-vitro hydrolysis of Nabumetone beta-keto ester pro-prodrug and release of Nabumetone in model blood electrolyte solution at 37° C.; assay type: physicochemical; settings: for Nabumetone formed in the solution: under-estimated, precipitating Nabumetone compromised sampling
[6] = Aqueous solubility of benzoylacetate salts (Example 13a); settings: water
[7] = Re-activation of storage stabile beta-keto calcium salt by dissolution, release of ketone (odour); assay type: physicochemical
Protocol: 25 mg of the precipitated and dried calcium salt prepared in Example 2, was, after being subjected to the storage stability test of Example 4, dissolved in 5.66 g of tap water and boiled for two minutes.

[8] = Storage stability of benzoylacetate salts and their corresponding acid (HPLC or gravimetric); assay type: physicochemical; settings: solid
Protocol: A 0.2 M solution of ethyl benzoyl acetate (90%, Sigma Aldrich) in 0.5 M NaOH (aq) was prepared at room temperature and stirred for typically 5-24 hours, still at room temperature. After this time a major part of the ethyl benzoyl acetate had been transformed into dissolved sodium benzoyl acetate, as evidenced by monitoring the reaction by analysis of samples by reversed phase HPLC. Some acetophenone and remaining ethyl benzoyl acetate were typically present in the samples, but in minor amounts. The method employed a C8 column with an inner diameter of 150×4.6 mm and 5 micron particles. The mobile phase consisted of 400 ml deionized water+600 ml acetonitrile+0.196 g H3PO4 (85%)+2.760 g NaH2PO4*H2O. The flow rate was set to 1.0 mL/min and UV detection at 254 nm was employed for analysis of the compounds ethylbenzoylacetate (precursor), benzoylacetate (model prodrug) and acetophenone (model drug).
The storage stability of the sodium and calcium salts of benzoylacetate, and of benzoylacetic acid, in solid form, and in aqueous solutions, was investigated by storage of samples under various conditions (see Table 3a above) with regular HPLC- or gravimetric measurements of the samples from time to time. Samples denoted “neutralized” were prepared from a solution prepared as described in Example 1, which was neutralized with diluted HCl after performing the steps in Example 1.
From the data it can be concluded that the best storage stability at room temperature is obtained by storage in the form of the calcium salt.

rat = settings: cited from earlier work

## COc1ccc2cc(CCC(C)=O)ccc2c1 [Nabumetone, 4-(6-methoxy-2-naphthyl)-2-butanone]
[1]; 200 μL filtered prodrug solution decarboxylated at 95° C. for about 5 hours, mixed with 35 mL mobile phase
  Nabumetone found in filtered solution by HPLC: 0.777 mg Nabumetone per liter
[1]; clear liquid after 3.5 h at 37° C. in 0.5 M NaOH, 200 μL diluted with 5.0 ml mobile phase
  Area at retention time 3.8 minutes characteristic for detection of Nabumetone: 59 arbitrary units
[2]
  Solubility: 0.0047 mg/mL (≈ 20.6 µM)
[3]; 3.25 h after initiation of saponification
  Nabumetone (HPLC area @ 3.8 min): 0
[3]; 5.1 h after initiation of saponification
  Nabumetone (HPLC area @ 3.8 min): 0
[3]; 21.45 h after initiation of saponification
  Nabumetone (HPLC area @ 3.8 min): 5265
[3]; 24.25 h after initiation of saponification
  Nabumetone (HPLC area @ 3.8 min): 5388 and 5496
[3]; 28.15 h after initiation of saponification
  Nabumetone (HPLC area @ 3.8 min): 5804
[3]; 45.4 h after initiation of saponification
  Nabumetone (HPLC area @ 3.8 min): 10083
[3]; 50 h after initiation of saponification
  Nabumetone (HPLC area @ 3.8 min): 11400
[3]; 78 h after initiation of saponification
  Nabumetone (HPLC area @ 3.8 min): 13359
[3]; 117 h after initiation of saponification
  Nabumetone (HPLC area @ 3.8 min): 18156
[3]; 194 h after initiation of saponification
  Nabumetone (HPLC area @ 3.8 min): 22484
[4]; 408 h
  Relative amount of calcium salt beta-keto prodrug/Nabumetone remaining after 17 days at 60° C.: 45.3%
[4]; dry calcium salt after 17 days at 60° C., redissolved in water, HPLC
  Obtained value (area units): 1315 area units
[4]; recalculated for dilution
  Expected value if no breakdown occured during storage and a 100% yield was obtained upon precipitation with calcium chloride: 90 area units
[5]; model blood solutes solution
  storage time after which sedimenting crystalline flakes of Nabumetone were detected in the sample: 100 to 150 h
[5]; model blood solutes solution with surface active beta-keto anion prodrug
  Nabumetone staying in a stabile dispersion (theoretical concentration): 40 mg/L
[5]; model blood solutes solution, Time 96.8 hours
  Nabumetone formed in the solution: (2656)* mg/L
[5]; model blood solutes solution, Time 121.25 hours
  Nabumetone formed in the solution: (2715)* mg/L
[5]; model blood solutes solution, Time 145.0 hours
  Nabumetone formed in the solution: (2423)* mg/L
[5]; model blood solutes solution, Time 172.6 hours
  Nabumetone formed in the solution: (3508)* mg/L
[5]; model blood solutes solution, Time 197.3 hours
  Nabumetone formed in the solution: (3240)* mg/L
[5]; model blood solutes solution, Time 218.4 hours
  Nabumetone formed in the solution: (3859)* mg/L
[5]; model blood solutes solution, Time 293.7 hours
  Nabumetone formed in the solution: (3013)* mg/L

## O=C([O-])CC(=O)c1ccccc1.O=C([O-])CC(=O)c1ccccc1.[Ca+2] [calcium benzoylacetate, Ca(benzoylacetate)2]
[6]; as Ca(benzoylacetate)2, corrected for 40 wt % content
  Solubility: 69 mM
[6]; benzoylacetate in the solution, corrected for 40 wt % content
  Solubility (mM, as acetophenone equivalents): 138 mM
[6]; dry calcium salt sample containing only 40 wt % calcium benzoyl acetate
  solubility limit: ~63 mg/mL
[7]; 25 mg dissolved in 5.66 g tap water and boiled for two minutes, after storage stability test
  release of acetophenone (odour): strong odour of acetophenone
[7]; similar amount kept in dry form in an identical beaker
  release of acetophenone (odour): did not give rise to any acetophenone odour
[8]; 1 days at room T and typical indoor humidity, 0 days at 50% RH and room T, 0 days at 60° C. in oven
  Absolute amount of calcium benzoylacetate in sample (wt %, from HPLC): 35.9 wt %
[8]; 1.9 days at room T and typical indoor humidity, 0 days at 50% RH and room T, 0 days at 60° C. in oven
  Absolute amount of calcium benzoylacetate in sample (wt %, from HPLC): 34.2 wt %
[8]; 8 days at room T and typical indoor humidity, 0 days at 50% RH and room T, 0 days at 60° C. in oven
  Absolute amount of calcium benzoylacetate in sample (wt %, from HPLC): 43.0 wt %
[8]; 9 days at room T and typical indoor humidity, 0 days at 50% RH and room T, 103 days at 60° C. in oven
  Absolute amount of calcium benzoylacetate in sample (wt %, from HPLC): 45.6 wt %
[8]; 9 days at room T and typical indoor humidity, 103 days at 50% RH and room T, 0 days at 60° C. in oven
  Absolute amount of calcium benzoylacetate in sample (wt %, from HPLC): 32.1 wt %
[8]; 28 days at room T and typical indoor humidity, 0 days at 50% RH and room T, 0 days at 60° C. in oven
  Absolute amount of calcium benzoylacetate in sample (wt %, from HPLC): 33.1 wt %
[8]; 112 days at room T and typical indoor humidity, 0 days at 50% RH and room T, 0 days at 60° C. in oven
  Absolute amount of calcium benzoylacetate in sample (wt %, from HPLC): 40.4 wt %

## CCN [ethyl amine]
rat
  LD50: 280 mg/kg

## CN [methyl amine]
rat
  LD50: 100 mg/kg
